Data as given in ChEMBL document CHEMBL5346924, “Optically activated MEK1/2 inhibitors (Opti-MEKi) as potential antimelanoma agents” (Eur J Med Chem, 2023).
The source made the active and inactive calls. No cut-off for these calls is given here.

Experiments:
HCT-116 = assay: Antiproliferative activity against human HCT-116 cells harboring KRAS G13D mutant assessed as cell growth inhibition preincubated with compound for 1 hrs followed by UV irradiation for 5 mins and measured 72 hrs post compound treatment by CellTiter-Glo luminescent assay; type: functional; conditions: HCT-116, light or radiation study
A-375 [1] = assay: Inhibition of colony formation in human A-375 cells preincubated with compound for 1 hrs followed by 365 nm light irradiation for 5 mins and measured for 10 days by crystal violet staining based analysis; type: functional, cell-based; conditions: dose 10-300 nM, time 14465.0 min
[2] = target: Ribosomal protein S6 kinase alpha-1 (Homo sapiens) (UniProt Q15418); assay: Inhibition of recombinant human RSK1 at 1 uM
A-375 [3] = assay: Antiproliferative activity against human A-375 cells harboring BRAF V600E mutant assessed as cell growth inhibition preincubated with compound for 1 hrs followed by UV irradiation for 3 mins and measured 72 hrs post compound treatment by CellTiter-Glo luminescent assay; type: functional; conditions: A-375, light or radiation study
[4] = tested on: Serine/threonine-protein kinase B-raf (Homo sapiens), P15056 [V600E]; assay: Inhibition of recombinant human BRAF V600E mutant at 1 uM
A-375 [5] = assay: Antiproliferative activity against CM-Dil labelled human A-375 cells xenografted in Zebra fish AB assessed as suppression of tumor growth by measuring red fluorescence preincubated with compound followed by 365 nm light irradiation for 5 mins and measured after 48 hrs by fluorescence based analysis; type: functional, cell-based; conditions: dose 45-90 pM
A-375 [6] = assay: Antiproliferative activity against human A-375 cells harboring BRAF V600E mutant assessed as cell growth inhibition preincubated with compound for 1 hrs followed by UV irradiation for 5 mins and measured 72 hrs post compound treatment by CellTiter-Glo luminescent assay; type: functional; conditions: A-375, light or radiation study
[7] = target: T1, Dual specificity mitogen-activated protein kinase kinase 1 (Homo sapiens, UniProt Q02750); assay: Inhibition of recombinant human MEK1 at 1 uM
CYP3A4 = CYP3A4 (Homo sapiens, UniProt P08684); assay: Inhibition of CYP3A4 in human microsomes at 10 uM in the presence of NADPH relative to control; type: ADME, Microsome
[8] = Metabolic stability in human liver microsomes assessed as half-life in the presence of NADPH regenerating system; type: ADME, Microsome
CYP2C9 = CYP2C9 (Homo sapiens, UniProt P11712); assay: Inhibition of CYP2C9 in human microsomes at 10 uM in the presence of NADPH relative to control; type: ADME, Microsome
[9] = target: Mitogen-activated protein kinase 3 (Homo sapiens) (UniProt P27361); assay: Inhibition of recombinant human ERK1 at 1 uM
CYP1A2 = target: T2, CYP1A2 (Homo sapiens, UniProt P05177); assay: Inhibition of CYP1A2 in human microsomes at 10 uM in the presence of NADPH relative to control; type: ADME, Microsome
T2 sequence (P05177 whole entry): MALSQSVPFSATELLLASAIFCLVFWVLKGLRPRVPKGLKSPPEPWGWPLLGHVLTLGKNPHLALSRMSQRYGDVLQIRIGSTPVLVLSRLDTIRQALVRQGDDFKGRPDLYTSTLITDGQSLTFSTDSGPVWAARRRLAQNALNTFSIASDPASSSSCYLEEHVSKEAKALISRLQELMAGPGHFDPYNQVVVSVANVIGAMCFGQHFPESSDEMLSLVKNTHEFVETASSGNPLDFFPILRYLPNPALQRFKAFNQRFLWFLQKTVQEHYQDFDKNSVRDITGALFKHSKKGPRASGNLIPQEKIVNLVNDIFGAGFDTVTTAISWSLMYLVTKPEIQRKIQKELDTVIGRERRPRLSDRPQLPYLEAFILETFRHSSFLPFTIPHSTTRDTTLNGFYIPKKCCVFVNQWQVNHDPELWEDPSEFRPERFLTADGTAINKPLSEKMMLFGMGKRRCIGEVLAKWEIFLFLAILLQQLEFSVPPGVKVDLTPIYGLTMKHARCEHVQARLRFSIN

A-375 [10] = assay: Antiproliferative activity against human A-375 cells harboring BRAF V600E mutant assessed as cell growth inhibition preincubated with compound for 1 hrs followed by UV irradiation for 1 min and measured 72 hrs post compound treatment by CellTiter-Glo luminescent assay; type: functional; conditions: A-375, light or radiation study
A-375 [11] = assay: Antiproliferative activity against human A-375 cells harboring BRAF V600E mutant assessed as cell growth inhibition incubated for 72 hrs in the absence of UV irradiation by CellTiter-Glo luminescent assay; type: functional; conditions: A-375, light or radiation study
[12] = target: Mitogen-activated protein kinase; ERK1/ERK2 (Homo sapiens, UniProt P27361+P28482); assay: Inhibition of ERK1/2 phosphorylation in human A-375 cells preincubated with compound for 1 hrs followed by 365 nm light irradiation for 5 mins and measured after 1 hrs compound treatment by Western blot analysis; type: cell-based; conditions: dose 1-100 nM, time 125.0 min
A-375 [13] = assay: Inhibition of MEK/ERK/RSK signaling in human A-375 cells at 5 nM in the absence of light irradiation by Western blot analysis; type: cell-based
[14] = target: Fibroblast growth factor receptor 1 (Homo sapiens) (UniProt P11362); assay: Inhibition of recombinant human FGFR1 at 1 uM
[15] = target: Serine/threonine-protein kinase B-raf (Homo sapiens) (UniProt P15056); assay: Inhibition of recombinant human BRAF at 1 uM
[16] = Photoactivation of the compound assessed as photocleavage in the presence of 365 nm UV irradiation by HPLC based LC-MS analysis
[17] = Cytotoxicity against HEK293T cells assessed as cell growth inhibition incubated for 72 hrs by CellTiter-Glo luminescent assay; type: toxicity, cell-based, HEK-293T; conditions: human
[18] = Metabolic stability in human liver microsomes assessed as parent compound remaining measured after 1 hrs in the absence of NADPH regenerating system; type: ADME, Microsome; conditions: read-out: Stability
A-375 [19] = assay: Inhibition of MEK/ERK/RSK signaling in human A-375 cells assessed as inhibition of RSK phosphorylation at 5 nM in the presence of 365 nm light irradiation for 30 sec to 5 min by Western blot analysis; type: cell-based
A549 = assay: Antiproliferative activity against human A549 cells harboring KRas […] mutant assessed as cell growth inhibition preincubated with compound for 1 hrs followed by UV irradiation for 5 mins and measured 72 hrs post compound treatment by CellTiter-Glo luminescent assay; type: functional; conditions: A549, light or radiation study
[20] = Selectivity ratio of GI50 for antiproliferative activity against human A-375 cells harboring BRAF V600E mutant in the absence of UV irradiation to GI50 for antiproliferative activity against human A-375 cells harboring BRAF V600E mutant in the presence of UV irradiation for 5 mins; type: functional
[21] = target: T1, Dual specificity mitogen-activated protein kinase kinase 1; assay: Inhibition of MEK1 (unknown origin) incubated for 1 hrs in the presence of ATP by FRET-based Z'-Lyte assay
A-375 [22] = assay: Inhibition of colony formation in human A-375 cells at 10 to 300 nM incubated for 10 days by crystal violet staining based analysis; type: functional, cell-based; conditions: dose 10-300 nM, time 10.0 day
Homo sapiens = species on record: Homo sapiens; assay: Inhibition of recombinant human PI3K at 1 uM
A-375 [23] = assay: Inhibition of MEK/ERK/RSK signaling in human A-375 cells assessed as inhibition of ERK phosphorylation at 5 nM in the presence of 365 nm light irradiation for 30 sec to 5 min by Western blot analysis; type: cell-based

T1 sequence (Q02750 whole entry): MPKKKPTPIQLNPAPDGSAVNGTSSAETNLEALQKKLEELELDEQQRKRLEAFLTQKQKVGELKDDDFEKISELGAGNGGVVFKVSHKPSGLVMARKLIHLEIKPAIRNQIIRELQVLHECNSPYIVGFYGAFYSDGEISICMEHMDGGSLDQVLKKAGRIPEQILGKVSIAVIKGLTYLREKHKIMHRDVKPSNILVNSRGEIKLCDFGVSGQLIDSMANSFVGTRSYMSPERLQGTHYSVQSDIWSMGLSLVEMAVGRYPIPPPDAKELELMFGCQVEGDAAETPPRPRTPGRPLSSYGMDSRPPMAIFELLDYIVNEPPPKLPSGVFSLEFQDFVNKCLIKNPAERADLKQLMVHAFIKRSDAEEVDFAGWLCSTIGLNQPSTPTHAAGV
Sequence of Mitogen-activated protein kinase; ERK1/ERK2 (P27361 whole entry, looked up): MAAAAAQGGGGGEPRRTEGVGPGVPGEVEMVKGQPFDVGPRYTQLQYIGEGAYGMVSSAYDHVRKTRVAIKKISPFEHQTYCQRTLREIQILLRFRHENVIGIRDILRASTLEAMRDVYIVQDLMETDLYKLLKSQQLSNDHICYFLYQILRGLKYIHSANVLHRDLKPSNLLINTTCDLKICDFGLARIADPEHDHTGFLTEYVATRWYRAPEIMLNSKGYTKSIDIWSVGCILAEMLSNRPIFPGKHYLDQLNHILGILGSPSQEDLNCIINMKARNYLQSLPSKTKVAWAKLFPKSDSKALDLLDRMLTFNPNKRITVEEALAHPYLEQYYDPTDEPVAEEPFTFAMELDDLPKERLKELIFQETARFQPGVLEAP
Sequence of Mitogen-activated protein kinase; ERK1/ERK2 (P28482 whole entry, looked up): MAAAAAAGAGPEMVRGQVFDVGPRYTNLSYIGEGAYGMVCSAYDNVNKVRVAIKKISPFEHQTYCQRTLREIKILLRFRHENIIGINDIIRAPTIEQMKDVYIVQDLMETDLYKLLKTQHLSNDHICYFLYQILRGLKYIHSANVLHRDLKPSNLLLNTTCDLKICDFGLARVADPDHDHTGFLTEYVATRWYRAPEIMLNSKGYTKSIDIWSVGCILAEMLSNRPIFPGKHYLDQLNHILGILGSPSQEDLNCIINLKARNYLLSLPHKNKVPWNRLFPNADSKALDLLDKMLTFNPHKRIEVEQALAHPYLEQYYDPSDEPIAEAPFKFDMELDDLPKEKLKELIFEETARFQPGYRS
Sequence of Mitogen-activated protein kinase 3 (Homo sapiens) (P27361 whole entry): as the sequence (P27361 whole entry, looked up) above
Sequence of Serine/threonine-protein kinase B-raf (Homo sapiens), P15056 [V600E] (P15056 whole entry V600E): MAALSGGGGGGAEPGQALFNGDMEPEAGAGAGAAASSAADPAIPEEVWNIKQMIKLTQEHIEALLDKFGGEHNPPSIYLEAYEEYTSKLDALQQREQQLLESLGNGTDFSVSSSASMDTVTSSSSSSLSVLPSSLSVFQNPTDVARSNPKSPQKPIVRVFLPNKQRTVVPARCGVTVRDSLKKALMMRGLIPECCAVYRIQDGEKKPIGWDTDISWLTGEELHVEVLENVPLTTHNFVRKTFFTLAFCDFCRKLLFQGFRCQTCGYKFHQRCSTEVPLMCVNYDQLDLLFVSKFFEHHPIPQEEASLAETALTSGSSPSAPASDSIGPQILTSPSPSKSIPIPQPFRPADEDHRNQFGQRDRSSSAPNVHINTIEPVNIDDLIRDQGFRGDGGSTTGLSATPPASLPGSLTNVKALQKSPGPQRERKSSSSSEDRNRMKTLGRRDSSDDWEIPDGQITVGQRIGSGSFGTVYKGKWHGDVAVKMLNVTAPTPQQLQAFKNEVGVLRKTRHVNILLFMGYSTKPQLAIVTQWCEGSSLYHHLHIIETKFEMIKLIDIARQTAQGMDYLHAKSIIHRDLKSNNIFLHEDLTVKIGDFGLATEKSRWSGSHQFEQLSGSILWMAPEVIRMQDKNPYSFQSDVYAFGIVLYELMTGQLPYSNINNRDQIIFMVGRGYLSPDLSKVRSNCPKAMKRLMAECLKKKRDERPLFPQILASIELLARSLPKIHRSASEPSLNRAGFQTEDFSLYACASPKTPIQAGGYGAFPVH
Sequence of CYP2C9 (P11712 whole entry): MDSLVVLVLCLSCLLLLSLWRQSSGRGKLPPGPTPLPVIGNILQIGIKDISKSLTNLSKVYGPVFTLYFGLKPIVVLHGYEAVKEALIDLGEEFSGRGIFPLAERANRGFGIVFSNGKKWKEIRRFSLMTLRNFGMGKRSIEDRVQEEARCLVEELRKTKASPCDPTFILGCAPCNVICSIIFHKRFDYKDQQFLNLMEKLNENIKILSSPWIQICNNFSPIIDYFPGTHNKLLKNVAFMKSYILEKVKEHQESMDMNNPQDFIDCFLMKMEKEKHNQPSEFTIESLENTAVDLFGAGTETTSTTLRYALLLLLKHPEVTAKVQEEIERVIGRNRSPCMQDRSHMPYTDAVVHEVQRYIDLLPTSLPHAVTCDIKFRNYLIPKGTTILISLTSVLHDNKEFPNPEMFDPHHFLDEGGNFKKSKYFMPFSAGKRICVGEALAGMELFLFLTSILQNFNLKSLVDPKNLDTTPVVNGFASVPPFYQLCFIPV
Sequence of Serine/threonine-protein kinase B-raf (Homo sapiens) (P15056 whole entry): as the sequence (P15056 whole entry V600E) above, with E600V counted along it
Sequence of CYP3A4 (P08684 whole entry): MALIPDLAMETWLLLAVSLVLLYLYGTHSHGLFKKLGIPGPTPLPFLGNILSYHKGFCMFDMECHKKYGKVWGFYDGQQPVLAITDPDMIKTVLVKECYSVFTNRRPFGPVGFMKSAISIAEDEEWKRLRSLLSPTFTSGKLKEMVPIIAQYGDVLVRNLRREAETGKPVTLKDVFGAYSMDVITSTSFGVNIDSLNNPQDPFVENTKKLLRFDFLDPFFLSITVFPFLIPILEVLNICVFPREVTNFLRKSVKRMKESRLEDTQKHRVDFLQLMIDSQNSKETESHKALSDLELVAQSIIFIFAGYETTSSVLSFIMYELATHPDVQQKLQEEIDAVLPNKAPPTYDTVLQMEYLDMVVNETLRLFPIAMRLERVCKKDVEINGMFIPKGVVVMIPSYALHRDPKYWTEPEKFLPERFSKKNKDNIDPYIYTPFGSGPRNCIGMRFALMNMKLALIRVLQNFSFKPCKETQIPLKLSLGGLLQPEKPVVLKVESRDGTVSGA
Sequence of Ribosomal protein S6 kinase alpha-1 (Homo sapiens) (Q15418 whole entry): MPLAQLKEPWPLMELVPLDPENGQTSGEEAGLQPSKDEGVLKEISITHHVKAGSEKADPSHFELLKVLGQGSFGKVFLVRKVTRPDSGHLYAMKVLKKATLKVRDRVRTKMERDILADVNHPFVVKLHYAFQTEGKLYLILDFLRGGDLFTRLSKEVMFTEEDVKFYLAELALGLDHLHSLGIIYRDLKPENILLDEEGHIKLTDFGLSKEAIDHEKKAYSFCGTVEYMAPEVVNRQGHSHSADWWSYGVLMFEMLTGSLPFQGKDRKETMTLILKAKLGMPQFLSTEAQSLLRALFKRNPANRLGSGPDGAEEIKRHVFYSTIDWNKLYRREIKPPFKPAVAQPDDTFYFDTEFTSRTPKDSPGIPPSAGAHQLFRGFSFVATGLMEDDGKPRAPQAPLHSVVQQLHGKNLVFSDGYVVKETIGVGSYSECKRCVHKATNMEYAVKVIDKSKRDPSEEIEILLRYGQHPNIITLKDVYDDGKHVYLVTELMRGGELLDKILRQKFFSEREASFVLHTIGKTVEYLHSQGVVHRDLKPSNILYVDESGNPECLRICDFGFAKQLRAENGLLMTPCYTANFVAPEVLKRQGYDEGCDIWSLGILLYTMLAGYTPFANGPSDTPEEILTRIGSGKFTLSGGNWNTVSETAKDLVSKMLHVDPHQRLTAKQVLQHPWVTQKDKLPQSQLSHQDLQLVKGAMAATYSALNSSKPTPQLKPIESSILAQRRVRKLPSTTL
Sequence of Fibroblast growth factor receptor 1 (Homo sapiens) (P11362 22-822 limits assumed): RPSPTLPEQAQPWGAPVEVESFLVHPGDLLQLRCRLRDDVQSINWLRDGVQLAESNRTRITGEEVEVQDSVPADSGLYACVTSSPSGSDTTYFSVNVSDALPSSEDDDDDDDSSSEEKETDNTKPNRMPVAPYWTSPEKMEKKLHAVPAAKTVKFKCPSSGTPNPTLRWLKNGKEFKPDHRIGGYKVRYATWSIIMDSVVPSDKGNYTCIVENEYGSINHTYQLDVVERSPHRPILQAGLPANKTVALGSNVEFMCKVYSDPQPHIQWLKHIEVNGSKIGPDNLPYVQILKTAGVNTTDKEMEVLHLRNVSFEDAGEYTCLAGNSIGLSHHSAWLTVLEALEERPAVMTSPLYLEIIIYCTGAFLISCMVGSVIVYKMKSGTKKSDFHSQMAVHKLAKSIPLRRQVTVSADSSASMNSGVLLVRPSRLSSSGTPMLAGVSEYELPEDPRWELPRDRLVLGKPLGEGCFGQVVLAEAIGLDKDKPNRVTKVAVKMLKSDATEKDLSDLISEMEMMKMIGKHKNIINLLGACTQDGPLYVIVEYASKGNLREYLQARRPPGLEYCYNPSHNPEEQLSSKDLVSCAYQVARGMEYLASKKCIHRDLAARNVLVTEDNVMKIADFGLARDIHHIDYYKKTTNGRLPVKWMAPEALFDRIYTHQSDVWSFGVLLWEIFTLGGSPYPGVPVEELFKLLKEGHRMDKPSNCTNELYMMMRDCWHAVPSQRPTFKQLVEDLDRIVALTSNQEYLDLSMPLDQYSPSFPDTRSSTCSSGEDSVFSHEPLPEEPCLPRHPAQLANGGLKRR

COc1cc(C(C)O/C(=N\OC[C@H](O)CO)c2ccc(F)c(F)c2Nc2ccc(I)cc2F)c([N+](=O)[O-])cc1OC (some centres undefined)
GI50 (HCT-116): 60 nM | inhibition (A-375 [1]): Active | inhibition [2]: inactive | GI50 (A-375 [3]): 2.95 nM | inhibition [4]: inactive | Activity (A-375 [5]): Dose-Dependent Effect | GI50 (A-375 [6]): 2.13 nM | inhibition [7]: inactive | inhibition at 10 µM (CYP3A4): 92.4% | half-life [8]: 24.2 min | inhibition at 10 µM (CYP2C9): 63.3% | inhibition [9]: inactive | inhibition at 10 µM (CYP1A2): 0% | GI50 (A-375 [10]): 6.29 nM | GI50 (A-375 [11]): 12700 nM | inhibition [12]: Dose-Dependent Effect | inhibition (A-375 [13]): inactive | inhibition [14]: inactive | inhibition [15]: inactive | Drug metabolism [16]: Metabolite_Detected | GI50 at 72 h [17]: > 10000 nM | remaining at 1 h [18]: 84.5% | inhibition (A-375 [19]): Active | GI50 (A549): 27.8 nM | RatioGI50 [20]: >5000 | IC50 [21]: > 30000 nM | inhibition (A-375 [22]): inactive | inhibition (Homo sapiens): inactive | inhibition (A-375 [23]): Active
